Test results: patent US20050245399A1, “Pyrazole derivatives as herbicidal compositions containing them” (ISHIHARA SANGYO KAISHA, LTD., priority 2004, published 2005)

Assays:
Format in all cases: in vivo
[1] = test system: barnyardgrass (Echinochiloa oryzicola: ECHOR); assay: Test Example 3 water application herbicidal activity (paddy), ECHOR; settings: 63 g a.i./ha, water application under submerged condition at 0.5 leaf stage, visually observed 14th day after application; 0 = untreated control, 100 = complete kill
How it was run: (§1)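 Submerged application in flooded paddy soil (3–4 cm water); weeds treated at 0.5-leaf stage, transplanted rice 4 d after transplanting. Scored visually as % growth control: weeds at 14 d, rice at 21 d.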

[2] = test system: redroot pigweed (Amaranthus retroflexus L.), AMARE; assay: Test Example 2 post-emergence (foliage treatment) herbicidal activity, AMARE; settings: 63 g a.i./ha
How it was run: (§2)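 Foliar spray of formulated compound (500 L/ha dilution water, 0.1% v/v spreader) onto young potted plants at defined leaf stages. Scored 0-100% by visual inspection 20-23 d post-spray.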

[3] = test system: green foxtail (Setaria viridis L.): SETVI; assay: Test Example 1 pre-emergence herbicidal activity, SETVI; settings: Rate 63 g a.i./ha, visually observed 20th to 23rd day after application
How it was run: (§3)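 Visual scoring 20–23 days after treatment gives percent growth control, where 0 equals untreated and 100 means complete kill. Treatment: pre-emergence spray of formulated compound in 500 L/ha water, one day after sowing in upland soil.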

[4] = test system: wheat (Triticum aestivum L.): TRZAX; assay: Test Example 1 pre-emergence herbicidal activity, TRZAX; settings: Rate 63 g a.i./ha, visually observed 20th to 23rd day after application
How it was run: as §3

[5] = test system: barnyardgrass (Echinochloa crus-galli L.), ECHCG; assay: Test Example 2 post-emergence (foliage treatment) herbicidal activity, ECHCG; settings: 63 g a.i./ha
How it was run: as §2

[6] = test system: soybean (Glycine max Merr.): GLXMA; assay: Test Example 1 pre-emergence herbicidal activity, GLXMA; settings: Rate 63 g a.i./ha, visually observed 20th to 23rd day after application
How it was run: as §3

[7] = test system: rice (Oryza sativa L.), ORYSA; assay: Test Example 2 post-emergence (foliage treatment) herbicidal activity, ORYSA; settings: 63 g a.i./ha
How it was run: as §2

[8] = test system: japanese ribbon wapato (Sagittaria pygmaea: SA GPY); assay: Test Example 3 water application herbicidal activity (paddy), SAGPY; settings: 63 g a.i./ha, water application under submerged condition, tubers planted, visually observed 14th day after application; 0 = untreated control, 100 = complete kill
How it was run: as §1

[9] = test system: green foxtail (Setaria viridis L.), SETVI; assay: Test Example 2 post-emergence (foliage treatment) herbicidal activity, SETVI; settings: 63 g a.i./ha
How it was run: (§4)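 A small sprayer delivered the diluted WP or EC formulation (500 L/ha water, 0.1% v/v spreader) over emerged seedlings in upland soil pots. Damage relative to untreated plants was graded visually from 0 to 100% three weeks or so later (days 20-23).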

[10] = test system: prickly sida (Sida spinosa L.), SIDSP; assay: Test Example 2 post-emergence (foliage treatment) herbicidal activity, SIDSP; settings: 63 g a.i./ha
How it was run: as §4

[11] = test system: japanese bulrush (Scirpus juncoides: SCPJO); assay: Test Example 3 water application herbicidal activity (paddy), SCPJO; settings: 63 g a.i./ha, water application under submerged condition at 0.5 leaf stage, visually observed 14th day after application; 0 = untreated control, 100 = complete kill
How it was run: as §1

[12] = test system: prickly sida (Sida spinosa L.): SEDSP; assay: Test Example 1 pre-emergence herbicidal activity, SIDSP; settings: Rate 63 g a.i./ha, visually observed 20th to 23rd day after application
How it was run: as §3

[13] = test system: soybean (Glycine max Merr.), GLXMA; assay: Test Example 2 post-emergence (foliage treatment) herbicidal activity, GLXMA; settings: 63 g a.i./ha
How it was run: as §4

[14] = test system: common cocklebur (Xanthium strumarium L.): XANST; assay: Test Example 1 pre-emergence herbicidal activity, XANST; settings: Rate 63 g a.i./ha, visually observed 20th to 23rd day after application
Excerpt: Upland field soil was put into a 1/170,000 ha pot, and seeds of various plants {1. barnyardgrass (Echinochloa crus-galli L.): ECHCG, 2. crabgrass (Digitaria sanguinalis L.): DIGSA, 3. green foxtail (Setaria viridis L.): SETVI, 4. redroot pigweed (Amaranthus retroflexus L.): AMARE, 5. prickly sida (Sida spinosa L.): SEDSP, 6. velvetleaf (Abutilon theophrasti): ABUTH, 7. common cocklebur (Xanthium strumarium L.): XANST, 8. rice (Oryza sativa L.): ORYSA, 9. wheat (Triticum aestivum L.): TRZAX, 10. corn (Zea mays L.): ZEAMX, 11. soybean (Glycine max Merr.): GLXMA} were sown. Then, one day after the sowing, a wettable powder or emulsifiable concentrate having the compound of the present invention formulated in accordance with a usual formulation method, was weighed so that the active ingredient would be a predetermined amount and diluted with water in an amount of 500 L/ha. The herbicide adjusted was applied by a small size sprayer for preemergence treatment. On the 20th to 23rd day after the application of the herbicide, the growth of the respective plants was visually observed, and the herbicidal effects were evaluated by growth controlling degrees (%) ranging from 0 (equivalent to the untreated control) to 100 (complete kill), whereby the results shown in Table 4, were obtained. Compound Nos. in Table 4 correspond to Compound Nos. in Table 1 and 2 given hereinbefore.

| SMILES | growth controlling degrees (%) ECHOR [1] [%] | growth controlling degree, AMARE [2] [%] | Pre-emergence Herbicidal Activity SETVI (growth controlling degree) [3] [%] | Pre-emergence Herbicidal Activity TRZAX (growth controlling degree) [4] [%] | growth controlling degree, ECHCO [5] [%] | Pre-emergence Herbicidal Activity GLXMA (growth controlling degree) [6] [%] | growth controlling degree, ORYSA [7] [%] | growth controlling degrees (%) SAGPY [8] [%] | growth controlling degree, SETVI [9] [%] | growth controlling degree, SIDSP [10] [%] | growth controlling degrees (%) SCPJO [11] [%] | Pre-emergence Herbicidal Activity SIDSP (growth controlling degree) [12] [%] | growth controlling degree, GLXMA [13] [%] | Pre-emergence Herbicidal Activity XANST (growth controlling degree) [14] [%] |
| --- | --- | --- | --- | --- | --- | --- | --- | --- | --- | --- | --- | --- | --- | --- |
| COc1c(Cl)cc(F)c(-c2nn(C)c(OC(F)F)c2Cl)c1N(C)C=O [Compound 1-6] | 90 | 100 | 50 | 20 | 60 | 0 | 40 | 30 | 100 | 100 | 60 | 40 | 90 | – |
| COc1c(Cl)cc(F)c(-c2nn(C)c(OC(F)F)c2Cl)c1NC(=O)C=C(C)C [Compound 1-9] | 100 | 100 | 100 | 40 | 80 | 90 | 80 | 100 | 100 | 100 | 100 | 100 | 90 | 70 |
| COc1c(Cl)cc(F)c(-c2nn(C)c(OC(F)F)c2Cl)c1N(C=O)C1CCCC1 [Compound 1-10] | 100 | 100 | 100 | 40 | 90 | 50 | 70 | 40 | 100 | 100 | 40 | 100 | 50 | 100 |
| COc1c(Cl)cc(F)c(-c2nn(C)c(OC(F)F)c2Cl)c1N(C(=O)C=C(C)C)C(=O)C=C(C)C [Compound 1-11] | 100 | 100 | 100 | 20 | 70 | 50 | 40 | 40 | 100 | 100 | 40 | 100 | 50 | 30 |
| COc1c(Cl)cc(F)c(-c2nn(C)c(OC(F)F)c2Cl)c1N(C=O)CC(=O)c1ccccc1 [Compound 1-12] | 95 | 100 | 95 | 20 | 70 | 40 | 40 | 30 | 95 | 100 | 50 | 100 | 40 | 50 |
| CNc1c(OC)c(Cl)cc(F)c1-c1nn(C)c(OC(F)F)c1Cl [Compound 1-58] | 100 | 100 | 100 | 10 | 100 | 20 | 70 | 100 | 100 | 100 | 100 | 100 | 95 | – |
| COc1c(Cl)cc(F)c(-c2nn(C)c(OC(F)F)c2Cl)c1NC(C)C [Compound 1-59] | 100 | 100 | 100 | 30 | 100 | 30 | 40 | 60 | 100 | 100 | 80 | 100 | 95 | – |
| COc1c(Cl)cc(F)c(-c2nn(C)c(OC(F)F)c2Cl)c1NC1CCCC1 [Compound 1-60] | 100 | 100 | 30 | 0 | 100 | 0 | 40 | 60 | 100 | 100 | 60 | 0 | 70 | – |
